In US5288709A, “Erythromycin derivatives” (priority 1991, dated 1994):
In brackets after ≈: the same amount, converted by molar mass. Like-named read-outs stand apart in the source and are kept apart here.

What was measured:
Experiment in all cases: In-vitro antimicrobial activity primary screen (agar dilution MIC)
Type in all cases: cell-based
[1] = test system: Staphylococcus aureus CMX 553; conditions: Staphylococcus aureus, CMX553, 24 h, BHI agar, 20-24 h, read-out: MIC
In short: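 Agar dilution in Brain Heart Infusion agar with twelve successive compound dilutions; plates inoculated with 1:100 diluted cultures by replicator and incubated 20-24 h at 35-37 °C. MIC is the lowest concentration giving no growth, slight haze or sparse isolated colonies versus compound-free control; erythromycin A plate run as reference.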

[2] = test system: Pseudomonas aeruginosa A5007
In short: (§1)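 Twelve plates of successive aqueous compound dilutions in Brain Heart Infusion agar were spot-inoculated by Steers replicator with 1:100 culture dilutions (1:10 for slow growers such as Streptococcus) and incubated at 35-37° C for 20-24 hours. MIC was the lowest concentration giving no growth, slight haze or sparse colonies.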

[3] = test system: Klebsiella pneumoniae ATCC 8045
In short: as §1

[4] = test system: Enterobacter aerogenes ATCC 13048; conditions: Klebsiella aerogenes, Enterobacter aerogenes ATCC 13048, BHI agar, 20-24 h
In short: as §1

[5] = test system: Micrococcus luteus ATCC 9341; conditions: 20-24 h
In short: as §1

[6] = test system: Staphylococcus aureus NCTC 10649; conditions: NCTC10649, BHI agar, 20-24 h, read-out: MIC
In short: as §1

[7] = test system: Micrococcus luteus ATCC 4698; conditions: 20-24 h
In short: as §1

Escherichia coli JUHL = conditions: Escherichia coli JUHL, BHI agar, 20-24 h
In short: as §1

[8] = test system: Staphylococcus aureus ATCC 6538P; conditions: ATCC6538P, BHI agar, 20-24 h
In short: as §1

Pseudomonas cepacia 2961 = conditions: BHI agar, 20-24 h
In short: as §1

[9] = test system: Pseudomonas aeruginosa K799/61; conditions: Pseudomonas aeruginosa K799/61; BHI agar, 20-24 h; read-out: MIC
In short: as §1

[10] = test system: Staphylococcus aureus A5177; conditions: Staphylococcus aureus, A5177, 24 h
In short: as §1

[11] = test system: Streptococcus bovis A5169; conditions: Streptococcus equinus, A5169, 24 h, BHI agar, 20-24 h
In short: as §1

Escherichia coli H560 = conditions: Escherichia coli H560, BHI agar, 20-24 h
In short: as §1

[12] = test system: Providencia stuartii CMX 640
In short: as §1

[13] = test system: Streptococcus agalactiae CMX 508; conditions: 20-24 h
In short: as §1

Acinetobacter SP CMX 669 = conditions: Acinetobacter, SPCMX669, 24 h
In short: as §1

[14] = test system: Staphylococcus epidermidis 3519; conditions: BHI agar, 20-24 h, read-out: MIC
In short: as §1

[15] = test system: Streptococcus pyrogenes 2548 INDUC; conditions: BHI agar, 20-24 h
In short: as §1

[16] = test system: Streptococcus pyrogenes EES61; conditions: BHI agar, 20-24 h, read-out: MIC
In short: as §1

[17] = test system: Pseudomonas aeruginosa BMH10; conditions: Pseudomonas aeruginosa, BMH10, 24 h, BHI agar, 20-24 h
In short: as §1

Staphylococcus aureus 45 = conditions: BHI agar, 20-24 h
In short: as §1

Escherichia coli SS = conditions: BHI agar, 20-24 h
In short: as §1

[18] = test system: Enterococcus faecium ATCC 8043; conditions: ATCC8043; Enterococcus faecium ATCC 8043; BHI agar, 20-24 h; read-out: MIC
In short: as §1

[19] = test system: Pseudomonas aeruginosa K799/WT
In short: as §1

Escherichia coli DC-2 = conditions: Escherichia coli DC-2, BHI agar, 20-24 h
In short: as §1

[20] = test system: Staphylococcus aureus 642A; conditions: BHI agar, 20-24 h, read-out: MIC
In short: as §1

[21] = test system: Staphylococcus aureus 45 RAR2; conditions: Staphylococcus aureus, 45RAR2, 24 h, BHI agar, 20-24 h
In short: as §1

[22] = Pseudomonas aeruginosa, A5007, 24 h
[23] = Micrococcus luteus, ATCC9341, 24 h, BHI agar
[24] = Micrococcus luteus, ATCC4698, 24 h, BHI agar
[25] = Burkholderia cepacia, 2961, 24 h
[26] = Providencia stuartii, CMX640, 24 h
[27] = CMX508, BHI agar, read-out: MIC

CC[C@H]1OC(=O)[C@H](C)[C@@H](O[C@H]2C[C@@](C)(OC)[C@H](N)[C@H](C)O2)[C@H](C)[C@@H](O[C@@H]2O[C@H](C)C[C@H](N(C)C)[C@H]2O)[C@](C)(O)C[C@@H](C)[C@@H]2O[C@@]1(C)[C@@H](N)[C@H]2C [Example 20, (4"R,9S,11S)-4",11-Diamino-9-deoxo-4",11,12-trideoxy-9,12-epoxyerythromycinA]
MIC [1]: 0.2 µg/mL (≈ 0.279 µM) | MIC [2, 22]: > 100 µg/mL | MIC ([3]; Klebsiella pneumoniae, ATCC8045, 24 h): 1.56 µg/mL (≈ 2.18 µM) | MIC ([4]; ATCC13048, read-out: MIC): 12.5 µg/mL (≈ 17.5 µM) | MIC [5, 23]: 0.02 µg/mL (≈ 0.0279 µM) | MIC [6]: 0.39 µg/mL (≈ 0.545 µM) | MIC [7, 24]: 0.1 µg/mL (≈ 0.14 µM) | MIC (Escherichia coli JUHL; read-out: MIC): 3.1 µg/mL (≈ 4.33 µM) | MIC ([8]; Staphylococcus aureus, 24 h): 0.2 µg/mL (≈ 0.279 µM) | MIC (Pseudomonas cepacia 2961; [25]): > 100 µg/mL | MIC [9]: 0.78 µg/mL (≈ 1.09 µM) | MIC ([10]; Staphylococcus aureus A5177, BHI agar, 20-24 h): 0.78 µg/mL (≈ 1.09 µM) | MIC [11]: ≤ 0.005 µg/mL | MIC (Escherichia coli H560; read-out: MIC): 1.56 µg/mL (≈ 2.18 µM) | MIC [12, 26]: > 100 µg/mL | MIC [13, 27]: 0.02 µg/mL (≈ 0.0279 µM) | MIC (Acinetobacter SP CMX 669): 1.56 µg/mL (≈ 2.18 µM) | MIC [14]: 0.2 µg/mL (≈ 0.279 µM) | MIC ([15]; read-out: MIC): 0.78 µg/mL (≈ 1.09 µM) | MIC [16]: ≤ 0.005 µg/mL | MIC [17]: 25 µg/mL (≈ 34.9 µM) | MIC (Staphylococcus aureus 45; read-out: MIC): 0.2 µg/mL (≈ 0.279 µM) | MIC (Escherichia coli SS; read-out: MIC): 0.05 µg/mL (≈ 0.0698 µM) | MIC [18]: 0.05 µg/mL (≈ 0.0698 µM) | MIC ([19]; Pseudomonas aeruginosa, K799/WT, 24 h, Pseudomonas aeruginosa K799/WT, BHI agar, 20-24 h): 50 µg/mL (≈ 69.8 µM) | MIC (Escherichia coli DC-2; DC2, read-out: MIC): 3.1 µg/mL (≈ 4.33 µM) | MIC [20]: 0.39 µg/mL (≈ 0.545 µM) | MIC [21]: 0.39 µg/mL (≈ 0.545 µM)

CC[C@H]1OC(=O)[C@H](C)[C@@H](O[C@H]2C[C@@](C)(OC)[C@@H](O)[C@H](C)O2)[C@H](C)[C@@H](O[C@@H]2O[C@H](C)C[C@H](N(C)C)[C@H]2O)[C@](C)(OC)C[C@@H](C)[C@@H]2O[C@@]1(C)[C@@H](O)[C@H]2C [Example 28A]
MIC [1]: 0.2 µg/mL (≈ 0.273 µM) | MIC [2, 22]: > 100 µg/mL | MIC ([4]; ATCC13048, 24 h): 50 µg/mL (≈ 68.3 µM) | MIC ([5]; ATCC9341, BHI agar, read-out: MIC): 0.05 µg/mL (≈ 0.0683 µM) | MIC [6]: 0.2 µg/mL (≈ 0.273 µM) | MIC [7, 24]: 0.1 µg/mL (≈ 0.137 µM) | MIC (Escherichia coli JUHL; Escherichia coli, 24 h): 25 µg/mL (≈ 34.2 µM) | MIC ([8]; Staphylococcus aureus, 24 h): 0.2 µg/mL (≈ 0.273 µM) | MIC (Pseudomonas cepacia 2961; [25]): > 100 µg/mL | MIC [9]: 0.78 µg/mL (≈ 1.07 µM) | MIC [10]: 0.2 µg/mL (≈ 0.273 µM) | MIC [11]: 0.02 µg/mL (≈ 0.0273 µM) | MIC (Escherichia coli H560; Escherichia coli, H560, 24 h): 25 µg/mL (≈ 34.2 µM) | MIC [12, 26]: > 100 µg/mL | MIC ([13]; Streptococcus agalactiae, CMX508, 24 h, BHI agar): 0.05 µg/mL (≈ 0.0683 µM) | MIC (Acinetobacter SP CMX 669; Acinetobacter SP CMX 669, BHI agar, 20-24 h): 6.2 µg/mL (≈ 8.47 µM) | MIC [14]: 0.2 µg/mL (≈ 0.273 µM) | MIC ([15]; Streptococcus, 2548INDUC, 24 h): 3.1 µg/mL (≈ 4.24 µM) | MIC [16]: 0.02 µg/mL (≈ 0.0273 µM) | MIC [17]: 50 µg/mL (≈ 68.3 µM) | MIC (Staphylococcus aureus 45; Staphylococcus aureus, 45, 24 h): 3.1 µg/mL (≈ 4.24 µM) | MIC (Escherichia coli SS; Escherichia coli, 24 h): 0.2 µg/mL (≈ 0.273 µM) | MIC [18]: 0.05 µg/mL (≈ 0.0683 µM) | MIC ([19]; Pseudomonas aeruginosa, K799/WT, 24 h): > 100 µg/mL | MIC (Escherichia coli DC-2; Escherichia coli, DC2, 24 h): 25 µg/mL (≈ 34.2 µM) | MIC [20]: 0.2 µg/mL (≈ 0.273 µM) | MIC [21]: 0.2 µg/mL (≈ 0.273 µM)

CC[C@H]1OC(=O)[C@H](C)[C@@H](O[C@H]2C[C@@](C)(OC)[C@@H](OC(N)=O)[C@H](C)O2)[C@H](C)[C@@H](O[C@@H]2O[C@H](C)C[C@H](N(C)C)[C@H]2O)[C@](C)(O)C[C@@H](C)[C@@H]2O[C@@]1(C)C(=O)[C@H]2C [Example 31, (9S)-4"-O-Aminocarbonyl-9-deoxo-11,12-dideoxy-9,12-epoxy-11-oxoerythromycinA]
MIC [1]: 0.05 µg/mL (≈ 0.0659 µM) | MIC ([2]; Pseudomonas aeruginosa A5007, BHI agar, 20-24 h, read-out: MIC): > 100 µg/mL | MIC ([3]; ATCC8045, Klebsiella pneumoniae ATCC 8045, BHI agar, 20-24 h, read-out: MIC): 100 µg/mL (≈ 132 µM) | MIC ([4]; ATCC13048, read-out: MIC): 100 µg/mL (≈ 132 µM) | MIC [5, 23]: 0.02 µg/mL (≈ 0.0264 µM) | MIC [6]: 0.05 µg/mL (≈ 0.0659 µM) | MIC ([7]; ATCC4698, BHI agar, read-out: MIC): 0.05 µg/mL (≈ 0.0659 µM) | MIC (Escherichia coli JUHL; read-out: MIC): 100 µg/mL (≈ 132 µM) | MIC ([8]; read-out: MIC): 0.05 µg/mL (≈ 0.0659 µM) | MIC (Pseudomonas cepacia 2961; Burkholderia cepacia, read-out: MIC): > 100 µg/mL | MIC [9]: 1.56 µg/mL (≈ 2.06 µM) | MIC [10]: 50 µg/mL (≈ 65.9 µM) | MIC [11]: 0.05 µg/mL (≈ 0.0659 µM) | MIC (Escherichia coli H560; Escherichia coli, H560, 24 h): 50 µg/mL (≈ 65.9 µM) | MIC ([12]; CMX640, Providencia stuartii CMX 640, BHI agar, 20-24 h, read-out: MIC): > 100 µg/mL | MIC [13, 27]: 0.02 µg/mL (≈ 0.0264 µM) | MIC [14]: 0.05 µg/mL (≈ 0.0659 µM) | MIC ([15]; read-out: MIC): 0.78 µg/mL (≈ 1.03 µM) | MIC [16]: 0.02 µg/mL (≈ 0.0264 µM) | MIC [17]: 50 µg/mL (≈ 65.9 µM) | MIC (Staphylococcus aureus 45; read-out: MIC): 0.05 µg/mL (≈ 0.0659 µM) | MIC (Escherichia coli SS; Escherichia coli, 24 h): 0.2 µg/mL (≈ 0.264 µM) | MIC [18]: 0.05 µg/mL (≈ 0.0659 µM) | MIC ([19]; Pseudomonas aeruginosa K799/WT, BHI agar, 20-24 h, read-out: MIC): 100 µg/mL (≈ 132 µM) | MIC (Escherichia coli DC-2; DC2, read-out: MIC): 100 µg/mL (≈ 132 µM) | MIC [20]: 0.05 µg/mL (≈ 0.0659 µM) | MIC [21]: 0.05 µg/mL (≈ 0.0659 µM)
